Patent US12133843B2, “IL-8 inhibitors for use in the treatment and/or prevention of bacterial secondary infections” (priority 2017, dated 2024)

Columns and labels:
[1] = system: Influenza A/WSN/33 H1N1 (IAV); test: Single IAV infection in mice, treatment with CXCR1/CXCR2 antagonist; type: in vivo, C57BL/6J mice; conditions: 10^4 PFU IAV
[2] = system: Streptococcus pneumoniae (ATCC 6303 serotype 3); test: Single pneumococcal infection (pneumonia) in mice; type: in vivo, C57BL/6J mice; conditions: S. pneumoniae i.n.
[3] = system: S. pneumoniae secondary infection after IAV; type: in vivo, C57BL/6J mice
[4] = system: neutrophil influx; conditions: this dose and schedule (10 mg/kg oral gavage); cited from earlier work
[5] = in vivo; cited from earlier work
[6] = system: H1N1 influenza virus plus cigarette smoke; test: Lung inflammation exacerbation model combining H1N1 influenza infection and cigarette smoke exposure (Cs-H1N1); type: in vivo, female C57BL/6 mice; conditions: survival assay, once a day for 7 days from day of infection
Description: Viral infections are among the principal causes of COPD exacerbations (Mackay, A. J. & Hurst, J. R. Immunol Allergy Clin North Am 33, 95-115; 2013). For that reason, the inventors combined influenza infection and cigarette smoke exposure (Cs) in mice in order to model COPD exacerbation. The inventors essentially exposed female C57BL/6 mice to Cs for 12 days and infect them with 1000 pfu of H1N1 influenza virus at day 7 after starting daily Cs exposure (Cs-H1N1).

[7] = 10 mg/kg twice a day for 5 days, day 5, BAL
[8] = 10 mg/kg twice a day for 5 days, day 5, BAL fluid ELISA
[9] = 10 mg/kg at 6, 12, 24, 36 h, 48 h after infection, BALF

Question: Which results are given for C[C@@H](C(N)=O)c1ccc(OS(=O)(=O)C(F)(F)F)cc1 [DF2162, R(−)-2-[(4′-trifluoromethanesulfonyloxy)phenyl]propionamide]?
Answer: Weight loss (morbidity) ([1]; 10 mg/kg oral gavage twice a day, day 0 to 5, vs vehicle): reduction of weight loss; Histological analysis of lungs: bronchiolar and vascular inflammation ([1]; 10 mg/kg twice a day for 5 days, H&E slides): reduced bronchiolar and vascular inflammation; Levels of MPO in the lungs ([1]; 10 mg/kg twice a day for 5 days, day 5): did not reduce; Neutrophils in the airways [1, 7]: decreased; Number of leukocytes recruited into the airways [1, 7]: decreased; Levels of CXCL1 in the airways [1, 8]: decreased; Levels of IL-6 in the airways [1, 8]: did not reduce; Levels of TNF-α in the airways [1, 8]: decreased; Viral loads in the lungs ([1]; 10 mg/kg twice a day for 5 days, day 5, plaque assay, vs vehicle): reduced; Lung injury (histopathological score) ([1]; 10 mg/kg twice a day for 5 days, day 5, score max 18 points): reduced the lung injury; Lung injury (overall pathological score) ([2]; 10 mg/kg at 6, 12, 24, 36 h, 48 h, score max 18 points): reduced the lung injury; Neutrophils in the lungs ([2]; 10 mg/kg at 6, 12, 24, 36 h, 48 h after infection): reduction in neutrophils; Neutrophils recruited into the airways [2, 9]: decreased; Number of leukocytes recruited into the airways [2, 9]: decreased number of leukocytes; Lethality ([2]; 10 mg/kg twice a day for 2 days, followed 10 days): protected mice from lethality; Levels of IL-10 in BAL fluid ([3]; mouse, in vivo): decreased; Mortality after secondary infection ([3]; mouse, in vivo, 10 mg/kg): delayed mortality; Weight loss ([3]; mouse, in vivo, 10 mg/kg): reduced the weight loss; Histopathological lung damage (overall score of lung injury) ([3]; treated days 3-6 of IAV, […]): decreased such histopathological lung damage; Levels of CXCL-1 in BAL fluid ([3]; treated days 3-6 of IAV, […]): prevented the increase; Levels of IL-6 in BAL fluid ([3]; treated days 3-6 of IAV, […]): prevented the increase; Levels of IL-12 in BAL fluid ([3]; treated days 3-6 of IAV, […]): prevented the increase; Levels of TNF-α in BAL fluid ([3]; treated days 3-6 of IAV, […]): prevented the increase; Number of bacteria in the blood ([3]; treated days 3-6 of IAV, […]): reduction in number of bacteria; Recruitment of neutrophils into the lungs (MPO assay) ([3]; treated days 3-6 of IAV, […]): decreased recruitment of neutrophils; Recruitment of neutrophils into the airways ([3]; treated days 3-6 of IAV, […], BAL): decreased recruitment of neutrophils; Levels of protein in BALF (protein leakage) ([3]; treated days 3-6 of IAV, […], Bradford assay): decreased the levels of protein in BALF; Neutrophil influx in other models [4]: significant inhibition of neutrophil influx; Half-life [5]: long half-life

Question: What does the source list for C[C@@H](C(=O)NS(C)(=O)=O)c1ccc(OS(=O)(=O)C(F)(F)F)cc1 [DF2156A]?
Answer: Mortality rate ([6]; Cs-H1N1 mice, LD50 of influenza virus): slightly reduced; Mice mortality, delay (survival curve vs Cs-H1N1 group) [6]: significantly delayed

Question: With C[N+]1(C)[C@@H]2C[C@@H](OC(=O)C(O)(c3cccs3)c3cccs3)C[C@H]1[C@@H]1O[C@@H]12 [Tiotropium, reference compound] as the molecule, how does the “Mice mortality, delay (survival curve vs Cs-H1N1 group)” value [6] read?
Answer: Its value is “no significant differences”.
